Experiments:
Format in all cases: cell-based
[1] = tested on: human and mouse TLRs; assay: HEK293 SEAP reporter panel of human and mouse TLRs, specificity; settings: 16 hrs
Source text: In this example, the activity of the Compound 1 to stimulate different human and mouse TLR pathways was investigated on HEK293 cells transfected with inducible SEAP (secreted embryonic alkaline phosphatase) reporter genes and also expressing different human TLRs (TLR2, TLR3, TLR4, TLR5, TLR7, TLR8, TLRS) or mouse TLRs (TLR2, TLR3, TLR4, TLR5, TLR7, TLR8, TLR13). Compound A
HEK293 reporter cell lines were purchased from Invivogen and cell lines were maintained in manufacture recommended culture medium with required supplemental antibiotics. On the day of assay, the cells were harvested with Accutase and counted by the Vi-CELL Cell Viability Analyzers. Cells were re-suspended in HEK blue detection medium and a total of 10000 cells were seeded in each well of a 384-well flat bottom plate. […] Assay plates were cultured at 37° C. in a CO2 incubator for 16 hrs. HEK-Blue™ Detection medium changes to a purple/blue color in the presence of secreted SEAP, which can be detected by spectrophotometry at 620-655 nm. Data was fitted with non-linear regression analysis, using a log(inhibitor) vs. response-variable slope, 3-parameter fit with GraphPad Prism.

[2] = target: T1, mouse TLR2 (Mus musculus, UniProt Q9QUN7); assay: HEK293 SEAP reporter assay, other TLRs (Biological Example 3); settings: 16 hrs, up to 1 μM
T1 construct: host or cells: HEK293
T1 sequence (Q9QUN7 25-784): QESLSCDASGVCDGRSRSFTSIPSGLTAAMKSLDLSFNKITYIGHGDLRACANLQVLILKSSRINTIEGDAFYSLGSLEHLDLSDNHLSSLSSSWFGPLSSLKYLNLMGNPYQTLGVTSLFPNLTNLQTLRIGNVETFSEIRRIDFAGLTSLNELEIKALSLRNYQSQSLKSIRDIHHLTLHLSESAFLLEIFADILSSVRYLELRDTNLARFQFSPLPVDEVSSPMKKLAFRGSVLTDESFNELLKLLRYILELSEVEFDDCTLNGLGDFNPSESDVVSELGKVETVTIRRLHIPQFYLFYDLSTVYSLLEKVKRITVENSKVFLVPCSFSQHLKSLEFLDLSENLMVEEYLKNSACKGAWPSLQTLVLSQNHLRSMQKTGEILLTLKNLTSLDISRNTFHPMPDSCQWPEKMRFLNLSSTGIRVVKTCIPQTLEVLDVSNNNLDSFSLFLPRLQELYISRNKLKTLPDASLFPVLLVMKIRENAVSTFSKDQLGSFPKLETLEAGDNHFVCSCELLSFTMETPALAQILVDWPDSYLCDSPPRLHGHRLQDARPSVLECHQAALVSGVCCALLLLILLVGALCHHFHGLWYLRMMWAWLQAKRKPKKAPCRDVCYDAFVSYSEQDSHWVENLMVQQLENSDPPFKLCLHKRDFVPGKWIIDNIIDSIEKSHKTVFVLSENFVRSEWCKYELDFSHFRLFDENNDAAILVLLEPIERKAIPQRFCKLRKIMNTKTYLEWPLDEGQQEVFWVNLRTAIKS

[3] = target: T2, human TLR3 (Homo sapiens, UniProt O15455); assay: as above; settings: 16 hrs, up to 1 μM
T2 construct: host or cells: HEK293
T2 sequence (O15455 24-904): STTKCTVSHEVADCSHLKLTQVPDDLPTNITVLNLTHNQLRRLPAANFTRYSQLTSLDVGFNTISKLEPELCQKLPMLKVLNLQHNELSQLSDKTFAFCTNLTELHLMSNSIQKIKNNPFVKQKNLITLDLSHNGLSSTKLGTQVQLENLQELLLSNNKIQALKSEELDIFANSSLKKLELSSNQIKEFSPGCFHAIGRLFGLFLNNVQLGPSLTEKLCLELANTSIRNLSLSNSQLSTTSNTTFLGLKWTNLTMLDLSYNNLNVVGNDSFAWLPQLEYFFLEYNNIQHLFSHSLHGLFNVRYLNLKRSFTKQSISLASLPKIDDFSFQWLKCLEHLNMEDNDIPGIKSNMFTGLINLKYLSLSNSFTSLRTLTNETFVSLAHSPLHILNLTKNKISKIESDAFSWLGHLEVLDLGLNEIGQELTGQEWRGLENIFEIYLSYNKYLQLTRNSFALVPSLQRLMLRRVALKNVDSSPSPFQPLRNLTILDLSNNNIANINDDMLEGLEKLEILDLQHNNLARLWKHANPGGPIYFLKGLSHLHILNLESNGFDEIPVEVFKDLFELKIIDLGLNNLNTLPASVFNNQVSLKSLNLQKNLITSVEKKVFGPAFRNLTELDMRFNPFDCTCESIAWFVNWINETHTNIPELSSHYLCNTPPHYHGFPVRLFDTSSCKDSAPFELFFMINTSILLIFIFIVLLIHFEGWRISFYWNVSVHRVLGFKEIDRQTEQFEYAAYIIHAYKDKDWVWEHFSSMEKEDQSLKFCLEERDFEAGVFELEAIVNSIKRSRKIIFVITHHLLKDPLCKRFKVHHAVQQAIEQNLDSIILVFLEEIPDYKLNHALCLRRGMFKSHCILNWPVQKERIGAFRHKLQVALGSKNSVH

SMILES | specificity among human and mouse TLRs [1] | EC50 [2] | EC50 [3]
CCCCn1nc2c(N)nc3ccccc3c2c1Cc1ccc(CN)cc1 [Compound 1, 1-(4-(aminomethyl)benzyl)-2-butyl-2H-pyrazolo[3,4-c]quinolin-4-amine] | very specific to human and mouse TLR7 and human TLR8 | > 1 µM | > 1 µM
CCCCc1nc2c(N)nc3ccccc3c2n1Cc1ccc(CN)cc1 [Compound A, reference compound] | – | > 1 µM | > 1 µM

Reference: patent US20220259202A1, “1-(4-(AMINOMETHYL)BENZYL)-2-BUTYL-2H-PYRAZOLO[3,4-C]QUINOLIN-4-AMINE DERIVATIVES AND RELATED COMPOUNDS AS TOLL-LIKE RECEPTOR (TLR) 7/8 AGONISTS, AS WELL AS ANTIBODY DRUG CONJUGATES THEREOF FOR USE IN CANCER THERAPY AND DIAGNOSIS” (SUTRO BIOPHARMA, INC., priority 2019, published 2022)
